Experimental data from US20030133881A1, “Formulations for the remineralization of teeth” (priority 2001, published 2003).

What was measured:
[1] = test system: microflora from primary root carious lesions (PRCL); test: Ozone effect on microflora from primary root caries ex-vivo; type: cell-based; settings: for Mean ± SE of Total cfu (Log10): After 10 Seconds of Ozone Treatment
Excerpt: Primary root carious lesions (PRCL) are a major clinical problem. The aim of this study was to establish if ozone could achieve effective microbial killing in PRCL. An ozone producing generator (Purezone Ltd., Ipswich, U.K.) was used in this ex-vivo study assessing the use of ozone on PRCL. In this study, soft PRCL requiring restoration were used as these are the most severe type of lesion found in humans. 20 freshly extracted teeth with PRCL requiring restoration were used. After plaque removal using a hand held standard fine nylon fiber sterile toothbrush with sterile water as a lubricant to cleanse the surface, each tooth was then isolated using sterile cotton wool rolls and dried using a dry sterile cotton wool roll. […] Each sample was weighed and immediately placed in 1 ml of Fastidious Anaerobe Broth (FAB). To each 1 ml of FAB containing a biopsy o carious or ozone treated carious dentine, sterile glass beads were added. They were vortexed for 30 seconds to facilitate the extraction of any micro-organisms from the carious dentine and disperse any aggregates.
The procedure of Example 2 was repeated except that ozonized water was applied to the lesion for 20 seconds.

[2] = test system: Streptococcus sobrinus; TH 21; test: Ozone on S. sobrinus on saliva coated glass beads; settings: 10 seconds of ozone applied to saliva coated glass beads
Experimental: In study 2, 40 sterile saliva coated glass beads were put into bijoux bottles with 3 mls of Todd Hewitt broth for control and test groups. S. sobrinus and S. mutans were inoculated and incubated anaerobically overnight. Each glass bead was washed with 2 mls of PBS. Immediately, 10 seconds of ozone was applied to the glass beads in the test groups. Subsequently, each glass bead in the test and control groups was placed in 3 mls of Todd Hewitt broth with six more sterile glass beads and were vortexed for 30 seconds. After decimal dilutions, 100 ml aliquots were spread on blood agar plates supplemented with 5% (V/V) horse blood and placed in an anaerobic chamber at 37° C. for two days. The number of each colony type was counted and calculated.

O=[O+][O-] [ozone]
percentage of micro-organisms killed ([1]; 10 seconds of ozone, PRCL ex-vivo): more than 99% | Mean ± SE of Total cfu (Log10) ([1]; soft PRCL from extracted teeth): 3.57±0.37 Log10 | Mean ± SE of Total cfu (Log10) ([1]; soft PRCL from extracted teeth, listed as Ozone): 3.57 ± 0.37 Log10 | Total cfu (log10), mean±SE ([1]; after 20 seconds of ozone treatment, soft PRCL from extracted teeth): 3.77±0.42 log10 | colony count (log10), Mean±SE [2]: 1.09±0.36 log10
